{"source": "patent US9101638B2", "about": "“Boronic acid derivatives and therapeutic uses thereof” (Rempex Pharmaceuticals, Inc., priority 2013, dated 2015)", "key": {"[1]": {"test_system": "KP1009 (CTX-M-15)", "assay": "Potentiation of aztreonam, strain KP1009", "format": "cell-based"}, "[2]": {"test_system": "EC1010 (CMY-6)", "assay": "Potentiation of aztreonam, strain EC1010", "format": "cell-based"}, "[3]": {"test_system": "ec302 (TEM-10)", "assay": "Potentiation of tigemonam, strain ec302", "format": "cell-based"}, "[4]": {"molecular_target": "KPC-2 (Klebsiella pneumoniae, UniProt Q9F663)", "sequence (Q9F663 25-293, looked up, species assumed)": "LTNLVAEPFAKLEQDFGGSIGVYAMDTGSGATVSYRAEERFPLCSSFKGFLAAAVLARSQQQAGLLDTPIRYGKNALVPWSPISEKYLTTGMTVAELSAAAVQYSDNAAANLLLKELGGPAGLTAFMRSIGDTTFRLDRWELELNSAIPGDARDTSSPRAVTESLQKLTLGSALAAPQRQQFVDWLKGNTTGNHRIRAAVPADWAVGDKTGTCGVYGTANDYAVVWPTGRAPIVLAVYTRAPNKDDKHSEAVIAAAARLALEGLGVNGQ", "assay": "Inhibition of nitrocefin cleavage by purified KPC-2", "format": "biochemical", "settings": "nitrocefin reporter substrate, purified enzyme; read-out: Ki (KPC-2, NCF)", "how_it_was_run": "(§1)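 10 min RT preincubation, enzyme with inhibitor series in reaction buffer. Substrate nitrocefin; kinetic read 490 nm, 10 sec intervals, 10 min total.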"}, "[5]": {"molecular_target": "P99 (Enterobacter cloacae, UniProt P05364)", "sequence (P05364 21-381)": "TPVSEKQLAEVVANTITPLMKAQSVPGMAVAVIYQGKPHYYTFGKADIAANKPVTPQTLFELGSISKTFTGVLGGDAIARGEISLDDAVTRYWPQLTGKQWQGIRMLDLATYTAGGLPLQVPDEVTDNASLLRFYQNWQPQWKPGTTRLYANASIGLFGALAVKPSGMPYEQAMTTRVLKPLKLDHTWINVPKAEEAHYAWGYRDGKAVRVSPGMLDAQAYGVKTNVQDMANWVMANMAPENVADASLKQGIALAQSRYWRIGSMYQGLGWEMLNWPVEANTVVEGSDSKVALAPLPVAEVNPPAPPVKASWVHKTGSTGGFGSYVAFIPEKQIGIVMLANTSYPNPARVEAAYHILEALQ", "assay": "Inhibition of nitrocefin cleavage by purified P99", "format": "biochemical", "settings": "nitrocefin reporter substrate, purified enzyme; read-out: Ki (P99, NCF)", "method": "(§2) Purified enzymes were mixed with various concentrations of inhibitors in reaction buffer and incubated for 10 min at room temperature. Nitrocefin was added and substrate cleavage profiles were recorded at 490 nm every 10 sec for 10 min."}, "[6]": {"molecular_target": "CMY-2 (Klebsiella pneumoniae, UniProt Q48434)", "sequence (Q48434 21-381, species assumed)": "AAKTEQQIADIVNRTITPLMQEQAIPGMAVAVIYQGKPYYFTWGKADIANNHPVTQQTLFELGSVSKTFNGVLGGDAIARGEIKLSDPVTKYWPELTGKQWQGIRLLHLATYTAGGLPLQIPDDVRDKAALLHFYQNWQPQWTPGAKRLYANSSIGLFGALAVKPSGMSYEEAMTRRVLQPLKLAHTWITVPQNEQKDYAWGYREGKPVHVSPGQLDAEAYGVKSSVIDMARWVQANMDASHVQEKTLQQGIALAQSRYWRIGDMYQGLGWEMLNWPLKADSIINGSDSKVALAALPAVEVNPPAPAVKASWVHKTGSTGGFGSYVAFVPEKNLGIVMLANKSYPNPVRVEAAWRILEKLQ", "assay": "Inhibition of nitrocefin cleavage by purified CMY-2", "format": "biochemical", "settings": "nitrocefin reporter substrate, purified enzyme; read-out: Ki (CMY-2, NCF)", "method": "as §2"}, "[7]": {"molecular_target": "OXA-48 (Klebsiella pneumoniae, UniProt Q6XEC0)", "sequence (Q6XEC0 23-265 limits assumed)": "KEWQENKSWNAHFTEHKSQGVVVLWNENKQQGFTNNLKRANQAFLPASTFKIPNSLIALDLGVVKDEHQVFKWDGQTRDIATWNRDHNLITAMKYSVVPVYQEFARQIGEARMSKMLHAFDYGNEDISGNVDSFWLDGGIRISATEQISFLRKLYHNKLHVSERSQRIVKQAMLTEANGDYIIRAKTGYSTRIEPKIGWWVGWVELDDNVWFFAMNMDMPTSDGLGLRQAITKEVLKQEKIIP", "assay": "Inhibition of nitrocefin cleavage by purified OXA-48", "format": "biochemical", "settings": "nitrocefin reporter substrate, purified enzyme; read-out: Ki (OXA-48, NCF)", "how_it_was_run": "as §1"}, "[8]": {"molecular_target": "T1, Thrombin (Homo sapiens, UniProt P00734)", "T1 construct": "Thrombin; MPBio; 19491880; purchased MPBio 19491880", "assay": "Serine protease inhibition: thrombin", "format": "biochemical, mammalian", "settings": "Table 8A, class symbols; read-out: IC50 Thrombin", "method": "(§3) The effect of selected BLIs on the enzymatic activity of some common mammalian serine proteases was evaluated.\n(§4) 50 μl of the diluted enzyme was mixed with 50 μl of inhibitor at various concentrations and 50 μl of corresponding buffer (Table 7). Reaction mixtures were incubated for 10 min at 37° C. Subsequently, 50 μl of corresponding substrate (Table 7) was added and absorbance or fluorescence was monitored for 30 min on SpectraMax M2 plate reader (Molecular Devices). 4-(2-Aminoethyl)benzenesulfonyl fluoride hydrochloride (AEBSF) and leupeptin were used as positive controls. Rates of reaction were calculated and presented relative to “no treatment” control."}, "[9]": {"molecular_target": "T2, Elastase (Sus scrofa, UniProt P00772)", "T2 construct": "purchased Calbiochem 324682", "T2 sequence (P00772 27-266)": "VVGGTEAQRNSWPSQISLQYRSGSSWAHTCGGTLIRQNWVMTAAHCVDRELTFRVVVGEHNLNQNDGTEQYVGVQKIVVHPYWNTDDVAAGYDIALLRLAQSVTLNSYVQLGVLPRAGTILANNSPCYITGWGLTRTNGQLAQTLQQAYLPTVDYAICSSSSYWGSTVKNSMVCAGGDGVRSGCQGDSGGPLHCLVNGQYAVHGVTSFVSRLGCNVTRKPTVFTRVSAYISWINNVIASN", "assay": "Serine protease inhibition: elastase", "format": "biochemical, mammalian", "settings": "Table 8A, class symbols; read-out: IC50 Elastase", "method": "as §3, §4"}, "[10]": {"molecular_target": "T3, Neutrophil elastase (Homo sapiens, UniProt P08246)", "T3 construct": "purchased Calbiochem 324681", "T3 sequence (P08246 30-267)": "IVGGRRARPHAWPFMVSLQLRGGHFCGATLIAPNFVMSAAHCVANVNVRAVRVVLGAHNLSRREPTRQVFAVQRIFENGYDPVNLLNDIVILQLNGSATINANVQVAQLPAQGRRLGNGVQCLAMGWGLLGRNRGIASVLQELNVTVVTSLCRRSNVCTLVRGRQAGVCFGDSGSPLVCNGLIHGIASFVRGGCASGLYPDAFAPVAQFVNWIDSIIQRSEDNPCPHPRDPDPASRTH", "assay": "Serine protease inhibition: neutrophil elastase", "format": "biochemical, mammalian", "settings": "Table 8B; read-out: IC50 Neutrophil elastase", "method": "as §3, §4"}, "[11]": {"molecular_target": "T4, CathepsinG (Homo sapiens, UniProt P08311)", "T4 construct": "purchased EMD Millipore 219373", "T4 sequence (P08311 21-244)": "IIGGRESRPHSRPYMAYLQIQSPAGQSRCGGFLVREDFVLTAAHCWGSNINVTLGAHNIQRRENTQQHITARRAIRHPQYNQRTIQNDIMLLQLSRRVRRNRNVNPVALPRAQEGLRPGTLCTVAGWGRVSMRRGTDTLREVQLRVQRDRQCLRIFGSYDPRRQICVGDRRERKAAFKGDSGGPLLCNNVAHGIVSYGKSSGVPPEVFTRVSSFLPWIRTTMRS", "assay": "Serine protease inhibition: cathepsin G", "format": "biochemical, mammalian", "settings": "Table 8B", "method": "as §3, §4"}, "[12]": {"molecular_target": "T5, Dipeptidyl peptidase 8 (DPP8) (Homo sapiens, UniProt Q6V1X1)", "T5 construct": "purchased BPS Bioscience 80080", "T5 sequence (Q6V1X1 whole entry)": "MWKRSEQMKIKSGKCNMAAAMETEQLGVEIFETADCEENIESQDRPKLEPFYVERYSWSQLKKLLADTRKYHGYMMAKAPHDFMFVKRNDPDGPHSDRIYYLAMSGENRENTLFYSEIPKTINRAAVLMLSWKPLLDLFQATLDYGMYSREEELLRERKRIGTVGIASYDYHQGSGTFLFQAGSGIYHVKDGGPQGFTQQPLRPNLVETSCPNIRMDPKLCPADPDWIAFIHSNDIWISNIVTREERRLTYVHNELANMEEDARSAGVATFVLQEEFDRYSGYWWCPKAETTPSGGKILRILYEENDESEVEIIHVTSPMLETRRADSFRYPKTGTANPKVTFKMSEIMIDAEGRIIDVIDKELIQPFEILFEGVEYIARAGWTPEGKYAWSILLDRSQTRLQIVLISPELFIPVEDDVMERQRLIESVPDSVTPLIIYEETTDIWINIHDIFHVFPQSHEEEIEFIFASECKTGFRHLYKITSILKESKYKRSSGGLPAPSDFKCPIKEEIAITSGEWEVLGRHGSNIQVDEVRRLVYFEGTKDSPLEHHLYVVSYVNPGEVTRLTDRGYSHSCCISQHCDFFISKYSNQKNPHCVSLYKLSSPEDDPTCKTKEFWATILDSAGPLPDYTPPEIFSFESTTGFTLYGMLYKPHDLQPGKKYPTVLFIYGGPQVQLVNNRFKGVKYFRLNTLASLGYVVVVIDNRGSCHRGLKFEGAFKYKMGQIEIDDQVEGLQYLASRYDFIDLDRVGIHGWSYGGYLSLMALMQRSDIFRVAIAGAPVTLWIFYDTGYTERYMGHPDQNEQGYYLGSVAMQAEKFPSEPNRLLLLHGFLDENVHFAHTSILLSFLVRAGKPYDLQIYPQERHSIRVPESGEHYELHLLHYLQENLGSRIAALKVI", "assay": "Serine protease inhibition: DPP8", "format": "biochemical, mammalian", "settings": "Table 8B; read-out: IC50 DPP8", "method": "as §3, §4"}, "[13]": {"molecular_target": "T6, HtrA2 (Homo sapiens, UniProt O43464)", "T6 sequence (O43464 134-458)": "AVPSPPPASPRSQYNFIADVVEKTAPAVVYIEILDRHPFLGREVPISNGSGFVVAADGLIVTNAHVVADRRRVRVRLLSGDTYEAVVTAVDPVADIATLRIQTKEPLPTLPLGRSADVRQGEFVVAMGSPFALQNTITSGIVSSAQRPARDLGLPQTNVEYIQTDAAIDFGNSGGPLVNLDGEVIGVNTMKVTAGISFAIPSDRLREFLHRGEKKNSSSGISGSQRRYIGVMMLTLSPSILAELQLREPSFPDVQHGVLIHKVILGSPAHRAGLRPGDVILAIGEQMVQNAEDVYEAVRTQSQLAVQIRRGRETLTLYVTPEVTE", "assay": "Serine protease inhibition: HtrA2", "format": "biochemical, mammalian", "settings": "Table 8B; read-out: IC50 HtrA2", "method": "as §3, §4"}, "[14]": {"molecular_target": "CTX-M-14 (Escherichia coli, UniProt Q9L5C7)", "sequence (Q9L5C7 entry or part of it)": "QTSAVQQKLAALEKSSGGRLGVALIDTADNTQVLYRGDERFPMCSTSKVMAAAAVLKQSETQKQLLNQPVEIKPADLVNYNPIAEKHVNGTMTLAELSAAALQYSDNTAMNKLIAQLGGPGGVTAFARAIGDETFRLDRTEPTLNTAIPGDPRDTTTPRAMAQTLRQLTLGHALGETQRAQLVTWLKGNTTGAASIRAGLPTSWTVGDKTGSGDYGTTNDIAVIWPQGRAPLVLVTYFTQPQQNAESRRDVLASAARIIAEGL", "assay": "Inhibition of nitrocefin cleavage by purified CTX-M-14", "format": "biochemical", "settings": "nitrocefin reporter substrate, purified enzyme; read-out: Ki (CTX-M-14, NCF)", "how_it_was_run": "as §1"}}, "data": [{"compound": "CSC(=O)N[C@H]1Cc2cccc(C(=O)O)c2OB1O", "note": "[Compound 11, (R)-2-hydroxy-3-(methylthiocarbonylamino)-3,4-dihydro-2H-benzo[e][1,2]oxaborinine-8-carboxylic acid]", "values": [{"measurement": "AZT MPC4 CTX-M-15 KP1009", "setting": "[1]", "value": "Y (key: X = MIC of less than 1 μg/mL; Y = MIC of 1 μg/mL to 10 μg/mL; Z = MIC of greater than 10 μg/mL)"}, {"measurement": "AZT MPC4 CMY-6 EC1010", "setting": "[2]", "value": "Y (key: X = MIC of less than 1 μg/mL; Y = MIC of 1 μg/mL to 10 μg/mL; Z = MIC of greater than 10 μg/mL)"}, {"measurement": "TIG MPC4 TEM-10 ec302", "setting": "[3]", "value": "Z (key: X = MIC of less than 1 μg/mL; Y = MIC of 1 μg/mL to 10 μg/mL; Z = MIC of greater than 10 μg/mL)"}, {"measurement": "Ki", "setting": "[4]", "value": "> 0.01", "unit": "µM"}, {"measurement": "Ki", "setting": "[5]", "value": "< 0.001", "unit": "µM"}, {"measurement": "Ki", "setting": "[6]", "value": "< 0.001", "unit": "µM"}, {"measurement": "Ki", "setting": "[7]", "value": "< 0.001", "unit": "µM"}, {"measurement": "IC50", "setting": "[8]", "value": "> 800", "unit": "µM"}, {"measurement": "IC50", "setting": "[9]", "value": "> 800", "unit": "µM"}, {"measurement": "IC50", "setting": "[10]", "value": "> 500", "unit": "µM"}, {"measurement": "IC50", "setting": "[11]", "value": "15 to 500", "unit": "µM"}, {"measurement": "IC50", "setting": "[12]", "value": "> 500", "unit": "µM"}]}, {"compound": "[N-]=[N+]=NCC(=O)N[C@H]1Cc2cccc(C(=O)O)c2OB1O", "note": "[Compound 8, (R)-3-(2-azidoacetamido)-2-hydroxy-3,4-dihydro-2H-benzo[e][1,2]oxaborinine-8-carboxylic acid]", "values": [{"measurement": "AZT MPC4 CTX-M-15 KP1009", "setting": "[1]", "value": "X (key: X = MIC of less than 1 μg/mL; Y = MIC of 1 μg/mL to 10 μg/mL; Z = MIC of greater than 10 μg/mL)"}, {"measurement": "AZT MPC4 CMY-6 EC1010", "setting": "[2]", "value": "X (key: X = MIC of less than 1 μg/mL; Y = MIC of 1 μg/mL to 10 μg/mL; Z = MIC of greater than 10 μg/mL)"}, {"measurement": "TIG MPC4 TEM-10 ec302", "setting": "[3]", "value": "Y (key: X = MIC of less than 1 μg/mL; Y = MIC of 1 μg/mL to 10 μg/mL; Z = MIC of greater than 10 μg/mL)"}, {"measurement": "Ki", "setting": "[4]", "value": "> 0.01", "unit": "µM"}, {"measurement": "Ki", "setting": "[7]", "value": "< 0.001", "unit": "µM"}, {"measurement": "IC50", "setting": "[8]", "value": "> 800", "unit": "µM"}, {"measurement": "IC50", "setting": "[9]", "value": "> 800", "unit": "µM"}, {"measurement": "IC50", "setting": "[10]", "value": "> 500", "unit": "µM"}, {"measurement": "IC50", "setting": "[11]", "value": "< 15", "unit": "µM"}, {"measurement": "IC50", "setting": "[13]", "value": "> 500", "unit": "µM"}, {"measurement": "IC50", "setting": "[12]", "value": "> 500", "unit": "µM"}]}, {"compound": "O=C(CSc1nncs1)N[C@H]1Cc2cccc(C(=O)O)c2OB1O", "note": "[Compound 7, (R)-3-(2-(1,3,4-thiadiazol-2-ylthio)acetamido)-2-hydroxy-3,4-dihydro-2H-benzo[e][1,2]oxaborinine-8-carboxylic acid]", "values": [{"measurement": "AZT MPC4 CTX-M-15 KP1009", "setting": "[1]", "value": "X (key: X = MIC of less than 1 μg/mL; Y = MIC of 1 μg/mL to 10 μg/mL; Z = MIC of greater than 10 μg/mL)"}, {"measurement": "AZT MPC4 CMY-6 EC1010", "setting": "[2]", "value": "X (key: X = MIC of less than 1 μg/mL; Y = MIC of 1 μg/mL to 10 μg/mL; Z = MIC of greater than 10 μg/mL)"}, {"measurement": "TIG MPC4 TEM-10 ec302", "setting": "[3]", "value": "Y (key: X = MIC of less than 1 μg/mL; Y = MIC of 1 μg/mL to 10 μg/mL; Z = MIC of greater than 10 μg/mL)"}, {"measurement": "Ki", "setting": "[14]", "value": "< 0.001", "unit": "µM"}, {"measurement": "Ki", "setting": "[4]", "value": "> 0.01", "unit": "µM"}, {"measurement": "Ki", "setting": "[5]", "value": "< 0.001", "unit": "µM"}, {"measurement": "Ki", "setting": "[6]", "value": "< 0.001", "unit": "µM"}, {"measurement": "IC50", "setting": "[8]", "value": "> 800", "unit": "µM"}, {"measurement": "IC50", "setting": "[9]", "value": "> 800", "unit": "µM"}, {"measurement": "IC50", "setting": "[10]", "value": "> 500", "unit": "µM"}, {"measurement": "IC50", "setting": "[11]", "value": "15 to 500", "unit": "µM"}, {"measurement": "IC50", "setting": "[12]", "value": "15 to 500", "unit": "µM"}]}]}
